Values after ≈ are worked out from the molar mass of the structure shown. Values joined by “and” are separate entries in the source; they are usually repeats but may differ in a detail not shown here. Identical values can stand only once. Like-named read-outs stand apart in the source and are kept apart here.
What was measured:
[1] = system: S. aureus ATCC 12600; experiment: Inhibition of bacterial growth (MIC50, absorbance at 600 nm, 24 h); settings: for growth inhibition: concentrations <3 mg mL^−1
[2] = system: glutamate racemase isozyme 2 from Bacillus anthracis (RacE2); experiment: biochemical; assay type: biochemical; settings: FIG. 14, competitive inhibition model
[3] = system: B. subtilis; experiment: Cell wall lysis assay (modified CytoTox-Glo, luminescence)
[4] = system: B. subtilis DB104; experiment: Inhibition of bacterial growth (MIC50, absorbance at 600 nm, 24 h)
[5] = system: E. coli Acella; experiment: as above; settings: for growth inhibition: concentrations <3 mg mL^−1
[6] = target: T1, glutamate racemase from H. pylori (Helicobacter pylori, UniProt P56068); assay type: biochemical
T1 sequence (P56068 1-255): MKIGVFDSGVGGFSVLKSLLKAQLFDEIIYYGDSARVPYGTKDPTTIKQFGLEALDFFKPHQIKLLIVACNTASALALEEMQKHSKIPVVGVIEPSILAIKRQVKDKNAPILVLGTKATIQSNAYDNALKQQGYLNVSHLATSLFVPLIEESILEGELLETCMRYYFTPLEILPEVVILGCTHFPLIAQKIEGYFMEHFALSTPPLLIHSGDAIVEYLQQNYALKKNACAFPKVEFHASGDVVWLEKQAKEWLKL

[7] = target: T2, glutamate racemase (GR) from B. subtilis (Bacillus subtilis, UniProt P94556); settings: for Ki: read-out: Ki value
[8] = system: S. aureus; experiment: Cell wall lysis assay (modified CytoTox-Glo, luminescence)
[9] = target: T3, glutamate racemase isozyme 2 from Bacillus anthracis (RacE2) (Bacillus anthracis, UniProt A0A6L8PKK6); assay type: biochemical; settings: 25° C., pH 8.0
[10] = target: T3, glutamate racemase isozyme 2 from Bacillus anthracis (RacE2); experiment: biochemical; assay type: biochemical
[11] = target: GR from F. tularensis (Francisella tularensis, UniProt Q5NFN6); experiment: biochemical
[12] = target: GR from B. anthracis isozyme 1 (RacE1) (Bacillus anthracis, UniProt A0A6L8PVU3); experiment: biochemical
[13] = target: T2, glutamate racemase (GR) from B. subtilis; experiment: biochemical
[14] = Ki converted into binding energy divided by number of non-hydrogen atoms
[15] = from log(Ki) and calculated logP (MarvinSketch)
[16] = Staphylococcus aureus, ATCC12600

T2 sequence (P94556 whole entry): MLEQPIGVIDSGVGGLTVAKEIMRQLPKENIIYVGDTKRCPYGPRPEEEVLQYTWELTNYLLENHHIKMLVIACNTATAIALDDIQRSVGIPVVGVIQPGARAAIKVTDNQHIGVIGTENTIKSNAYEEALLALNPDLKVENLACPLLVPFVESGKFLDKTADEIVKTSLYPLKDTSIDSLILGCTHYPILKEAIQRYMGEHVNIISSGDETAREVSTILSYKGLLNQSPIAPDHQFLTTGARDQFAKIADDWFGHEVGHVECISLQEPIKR
T3 sequence (A0A6L8PKK6 1-269): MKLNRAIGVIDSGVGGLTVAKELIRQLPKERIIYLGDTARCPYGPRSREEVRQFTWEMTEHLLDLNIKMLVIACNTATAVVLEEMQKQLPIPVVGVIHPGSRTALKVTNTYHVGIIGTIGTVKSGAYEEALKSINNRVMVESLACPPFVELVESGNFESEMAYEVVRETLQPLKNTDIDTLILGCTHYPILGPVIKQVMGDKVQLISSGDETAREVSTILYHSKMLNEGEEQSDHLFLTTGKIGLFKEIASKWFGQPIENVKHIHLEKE
Sequence of GR from B. anthracis isozyme 1 (RacE1) (A0A6L8PVU3 1-276): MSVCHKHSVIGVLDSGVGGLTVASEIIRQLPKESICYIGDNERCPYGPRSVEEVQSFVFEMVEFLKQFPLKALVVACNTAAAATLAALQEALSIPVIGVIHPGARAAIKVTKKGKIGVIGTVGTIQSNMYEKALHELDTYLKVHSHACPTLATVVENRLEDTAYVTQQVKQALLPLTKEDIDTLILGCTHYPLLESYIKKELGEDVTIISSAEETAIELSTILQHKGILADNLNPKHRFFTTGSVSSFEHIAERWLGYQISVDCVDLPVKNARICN
Sequence of GR from F. tularensis (Q5NFN6 1-265): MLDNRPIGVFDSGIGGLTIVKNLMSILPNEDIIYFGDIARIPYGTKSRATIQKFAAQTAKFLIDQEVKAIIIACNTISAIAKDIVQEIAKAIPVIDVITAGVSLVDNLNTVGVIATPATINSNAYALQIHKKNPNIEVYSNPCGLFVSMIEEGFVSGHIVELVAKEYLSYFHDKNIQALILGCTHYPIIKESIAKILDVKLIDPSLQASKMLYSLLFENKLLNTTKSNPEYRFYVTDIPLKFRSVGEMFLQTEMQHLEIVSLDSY

## 7-fluoro-2-sulfo-1H-benzo[d]imidazole-5-carboxylic acid [Compound 4] [listing 1 of 2 here]
[1]; S. aureus
  MIC50: 1000 ± 250 µg/mL
[2]
  potency against B. anthracis RacE2 relative to B. subtilis GR: equal potency
[3]
  EC50 for lysis: 520 µg/mL
[3]; low-millimolar range
  increase in luminescence: 400%
[3]; read-out: EC50 value of cell lysis, FIG. 17, within the same range as the MIC50
  EC50: ~2 mM
[4]; B. subtilis
  MIC50: 260 ± 110 µg/mL
  MIC50 value for growth inhibition: 260 µg/mL
[4]; B. subtilis, FIG. 15
  MIC50: 1,788 μM and 460 μg/mL
[4]; B. subtilis, FIG. 17
  MIC50 value for bacterial growth inhibition: 2 mM
[5]; E. coli
  MIC50: 1600 ± 200 µg/mL
[6]; best-fit value, Table 5
  IC50: 102 µM
[6]; dose-response fit
  Hill Slope (best-fit value): −6.498
[6]; dose-response inhibition model, FIG. 16
  IC50: ~100 µM
[6]; log of compound concentration in mM
  LogIC50 (best-fit value): −0.9935
[7]; [14]
  LE (ligand efficiency): 0.45 kcal mol^−1 atom^−1
[7]
  Ki: 2.5 µM
[8]; S. aureus, millimolar inhibitor concentration range
  increase in luminescence: ~40%

## 7-fluoro-2-sulfo-1H-benzo[d]imidazole-5-carboxylic acid [Compound 4] [listing 2 of 2 here]
[9]
  Ki: 5.4 ± 2.5 µM

## O=S(=O)(O)c1nc2ccccc2[nH]1 [Compound 2, 1H-benzimidazole-2-sulfonic acid]
[10]
  IC50: 40 ± 5 µM
[11]
  IC50: 110 ± 12 µM
[12]
  IC50: 120 ± 5 µM
[4]; Bacillus subtilis, DB104
  MIC50: 720 ± 60 µg/mL (≈ 3.63 mM)
[13]
  IC50: 250 ± 20 µM
[7]
  LE (ligand efficiency): 0.53 kcal mol^−1 atom^−1
  LiPE (lipophilic efficiency): 5.3
[7]; GR from B. subtilis
  Ki: 9 µM

## Cc1ccc2[nH]c(S(=O)(=O)O)nc2c1 [Compound 15]
[4]; Bacillus subtilis, DB104
  MIC50: > 3000 µg/mL
[13]
  Ki: 21 ± 5 µM
[7]; [14]
  LE (ligand efficiency): 0.46 kcal mol^−1 atom^−1
[7]; [15]
  LiPE (lipophilic efficiency): 4.4

## CCCCNS(=O)(=O)c1ccc2[nH]c(S(=O)(=O)O)nc2c1 [Compound 18, 5-(n-butylsulfamoyl)-1H-benzo[d]imidazole-2-sulfonic acid]
[1]; S. aureus
  growth inhibition: no significant growth inhibition
[1]; [16]
  MIC50: > 3000 µg/mL
[4]; Bacillus subtilis, DB104
  MIC50: 360 ± 20 µg/mL (≈ 1.08 mM)
[5]; E. coli
  growth inhibition: no significant growth inhibition
[5]; Escherichia coli
  MIC50: > 3000 µg/mL
[13]
  Ki: 12 ± 3.6 µM
[7]; [14]
  LE (ligand efficiency): 0.30 kcal mol^−1 atom^−1
[7]; [15]
  LiPE (lipophilic efficiency): 5.0

## O=C(c1ccccc1)c1ccc2[nH]c(S(=O)(=O)O)nc2c1 [Compound 24]
[4]; Bacillus subtilis, DB104
  MIC50: 140 ± 20 µg/mL (≈ 0.463 mM)
[13]
  Ki: 830 ± 75 µM
[7]
  loss in binding affinity versus parent compound: ~100 fold
[7]; [14]
  LE (ligand efficiency): 0.20 kcal mol^−1 atom^−1
[7]; [15]
  LiPE (lipophilic efficiency): 1.9

## O=S(=O)(O)c1nc2ccc(Cl)cc2[nH]1 [Compound 26]
[4]; Bacillus subtilis, DB104
  MIC50: > 3000 µg/mL
[13]
  Ki: 13 ± 2.4 µM
[7]; [14]
  LE (ligand efficiency): 0.48 kcal mol^−1 atom^−1
[7]; [15]
  LiPE (lipophilic efficiency): 4.5

## O=S(=O)(O)c1nc2cc(S(=O)(=O)N3CCOCC3)ccc2[nH]1 [Compound 29, 5-(morpholinosulfonyl)-1H-benzo[d]imidazole-2-sulfonic acid]
[1]; S. aureus
  growth inhibition: no significant growth inhibition
[1]; [16]
  MIC50: > 3000 µg/mL
[4]; Bacillus subtilis, DB104
  MIC50: 320 ± 10 µg/mL (≈ 0.921 mM)
[5]; E. coli
  growth inhibition: no significant growth inhibition
[5]; Escherichia coli
  MIC50: > 3000 µg/mL
[13]
  Ki: 6.4 µM
[7]; [14]
  LE (ligand efficiency): 0.34 kcal mol^−1 atom^−1
[7]; [15]
  LiPE (lipophilic efficiency): 6.6

## CC1(C)S[C@@H]2[C@H](NC(=O)[C@H](N)c3ccccc3)C(=O)N2[C@H]1C(=O)O [ampicillin, reference compound]
[8]; S. aureus exposed 24 h, control antibiotics, FIG. 23A
  luminescence response (cell lysis): dose-dependent increase in luminescence

From US20160115136A1, “COMPOUNDS, COMPOSITIONS COMPRSING SAME, AND METHODS RELATED THERETO” (UNIVERSITY OF IOWA RESEARCH FOUNDATION, priority 2013, published 2016)
